Here are results for three molecules from ChEMBL document CHEMBL4184137, “Lysine Deacetylase Inhibitors in Parasites: Past, Present, and Future Perspectives” (J Med Chem, 2017).

The structures appear in SMILES notation. A value given as a limit tells only on which side of the number the result lay.

As usually defined, the IC50 is the concentration at which inhibition is half-maximal. Broadly, the inhibition is how much of the control response was suppressed.

Data set [1] deals with Plasmodium falciparum. Briefly: Antimalarial activity against Plasmodium falciparum using Malstat reagent by parasite lactate dehydrogenase assay. The class given is functional, organism-based.
Another data set deals with Vero. Briefly: Cytotoxicity against African green monkey Vero cells by neutral red assay. The format is cell-based. The following applies: Chlorocebus sabaeus.
The nature of data set [2]: Selectivity index, ratio of IC50 for African green monkey Vero cells to IC50 for Plasmodium falciparum. The class given is toxicity. The following applies: read-out: Ratio IC50.
In data set [3] the test system is Plasmodium falciparum. Briefly: Antimalarial activity against asexual-stage of Plasmodium falciparum 3D7 after 24 hrs by microbeta scintillation counting-based [3H]-hypoxanthine incorporation assay. The class given is functional, organism-based.
In data set [4] the test system is Plasmodium falciparum. As to the kind of experiment: Gametocytocidal activity against transgenic GFP-fused Plasmodium falciparum NF54 […] gametocytes after 72 hrs by Mitotracker Red CMH2XRos staining-based confocal microscopic method. The class given is functional, organism-based. The following applies: NF54, 72 h.
The subject of a further data set is NFF. As to the kind of experiment: Cytotoxicity against human NFF cells after 72 hrs by SRB assay. The class given is cell-based. For orientation: The SRB assay estimates cell density from bound dye.
A short description of data set [5]: Selectivity index, ratio of IC50 for human NFF cells to IC50 for asexual-stage of Plasmodium falciparum 3D7. The format is toxicity. The following applies: read-out: Ratio IC50.
A short description of data set [6]: Selectivity index, ratio of IC50 for human NFF cells to IC50 for transgenic GFP-fused Plasmodium falciparum NF54 […] gametocyte. The class given is toxicity. The following applies: read-out: Ratio IC50.
Another data set deals with T1, Histone deacetylase (Plasmodium falciparum, UniProt Q9XYC7).
T1 sequence (Q9XYC7 whole entry): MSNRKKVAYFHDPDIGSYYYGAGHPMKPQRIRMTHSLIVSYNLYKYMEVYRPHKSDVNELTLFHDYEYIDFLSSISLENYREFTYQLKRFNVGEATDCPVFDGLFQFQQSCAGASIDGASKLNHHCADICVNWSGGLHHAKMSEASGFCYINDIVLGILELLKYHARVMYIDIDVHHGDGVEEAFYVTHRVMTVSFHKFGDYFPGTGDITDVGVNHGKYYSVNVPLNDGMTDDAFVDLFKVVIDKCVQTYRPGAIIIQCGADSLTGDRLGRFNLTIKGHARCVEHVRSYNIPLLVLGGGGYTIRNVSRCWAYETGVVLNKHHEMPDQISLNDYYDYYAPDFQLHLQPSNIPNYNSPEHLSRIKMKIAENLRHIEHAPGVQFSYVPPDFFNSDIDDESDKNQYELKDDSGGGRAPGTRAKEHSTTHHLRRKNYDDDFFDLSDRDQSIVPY
As to the kind of experiment: Inhibition of HDAC1 in Plasmodium falciparum 3D7 nuclear extract using Ac-RGK(Ac)-AMC fluorogenic peptide as substrate preincubated for 1 hr followed by substrate addition measured after 10 min by fluorescence assay.

In data set [7] the target is T2, Histone deacetylase (Plasmodium falciparum) (UniProt Q9XYC7).
T2 sequence (whole entry): T1 sequence (Q9XYC7 whole entry)
Briefly: Inhibition of recombinant HDAC1 in recombinant Plasmodium falciparum at 1 uM using Ac-RGK(Ac)-AMC fluorogenic peptide as substrate preincubated for 1 hr followed by substrate addition measured after 10 min by fluorescence assay.

Data set [8] in a line: Selectivity index, ratio of IC50 for human NFF cells to IC50 for Trypanosoma brucei brucei. The class given is toxicity. The following applies: read-out: Selectivity Index.
Data set [9] can be described thus: Selectivity index, ratio of IC50 for HEK293 cells to IC50 for Trypanosoma brucei brucei. The class given is toxicity. The following applies: human, read-out: Selectivity Index.
A short description of data set [10]: Selectivity index, ratio of IC50 for human NFF cells to IC50 for Plasmodium falciparum. The class given is toxicity. The following applies: read-out: Ratio IC50.
Data set [11] in a line: Selectivity index, ratio of IC50 for HEK293 cells to IC50 for Plasmodium falciparum. The class given is toxicity. The following applies: human, read-out: Ratio IC50.

For the molecule `Cn1cc(C(=O)Cc2ccccc2)cc1/C=C/C(=O)NO`, the half-inhibitory concentration (IC50) was 1.2 to 4 µM in the data set on Plasmodium falciparum [1] and greater than 20 µM with Vero. Further, in data set [2], the selectivity ratio fell in the range of 5 to 17.
As for `CC(C)(C)c1ccc(NC(=O)NOCCCCCC(=O)NO)cc1`, the figures for the IC50 with Plasmodium falciparum [3], in the data set with Plasmodium falciparum [4] and in the data set on NFF were 0.16 µM, 3.45 µM and 4.9 µM, respectively. For the same molecule, the selectivity ratio in [5] came out at 31; in data set [6], 2.
At Histone deacetylase, `C/C=C1\NC(=O)[C@H]2CSSCC/C=C/[C@H](CC(=O)N[C@H](C(C)C)C(=O)N2)OC(=O)[C@H](C(C)C)NC1=O` [ROMIDEPSIN] yielded a concentration for half-maximal inhibition (IC50) of 0.0009 µM. Moreover, the inhibition in data set [7] was 48%. For the same molecule, the selectivity ratio in data set [8], in data set [9], in data set [10] and in data set [11] was less than 1 throughout.
